This note sets out measurements from PubChem BioAssay AID1996.

Structures are written as SMILES. Values after ≈ are worked out from the molar mass of the structure shown. Where only a bound is given, the exact number is not on record here.

For the series the following is noted: buffer; pH 7.4; 200.0 µM.
Molecule `CC(C)(C)C1CCC(C(=O)Nc2cccnc2)CC1` (stereo unspecified) showed a solubility (kinetic) of 6.3 µg/mL (≈ 24.2 µM). Then `Cc1cccn2c(=O)c3cc(C(=O)N4CCCCC4C)sc3nc12` (stereo unspecified), with 13.1 µg/mL (≈ 38.4 µM); and `O=C(NCCN1CCCCC1)Nc1cccc(Cl)c1Cl`, with less than 0.2 µg/mL.

Molecule `CC(NC(=O)c1cccc(Cl)c1)C1CC2CCC1C2` (stereo unspecified) returned a kinetic solubility of less than 0.6 µg/mL.

For `O=C(COC(=O)c1cccnc1Cl)NC(=O)c1ccc(OC(F)F)cc1`, the kinetic solubility worked out at 10.1 µg/mL (≈ 26.3 µM). With `O=C(NCCc1ccc(O)c(O)c1)C1COc2ccccc2O1` (stereo unspecified) the figure was greater than 47.3 µg/mL; with `O=C(COc1ccccc1Cl)Nc1ccc2[nH]c(=O)[nH]c2c1`, 2 µg/mL (≈ 6.29 µM); with `O=C(Cn1cc(C(F)(F)F)ccc1=O)OCC(=O)c1ccc[nH]1`, greater than 49.2 µg/mL. Then `CC(=O)c1c(C)[nH]c(C(=O)Nc2ccc(F)c(F)c2F)c1C`, with 1.8 µg/mL (≈ 5.8 µM); and `CC1CCN(CC(O)COc2ccc(C(=O)c3ccccc3)cc2)CC1` (stereo unspecified), with greater than 53 µg/mL. With `COc1cccc2cc(C(=O)NCCc3ccccc3)oc12` the figure was 26.9 µg/mL (≈ 91.1 µM); with `CC1(C)C[C@@H]2C[C@@](C)(CN2C(=O)c2ccccc2)C1`, 36.5 µg/mL (≈ 142 µM). The molecule `O=c1nc(SCc2ccc(Cl)cc2)nc(-c2ccccc2)[nH]1` showed a kinetic solubility of 4.5 µg/mL (≈ 13.6 µM). Molecule `O=C(CNc1cccc([N+](=O)[O-])c1)NC(=O)NC1CCCCC1` displayed a solubility (kinetic) of 30 µg/mL (≈ 93.6 µM). In the case of `Cc1cccc(Nc2nnc(SC3CCOC3=O)s2)c1C` (stereo unspecified), the kinetic solubility is greater than 48.2 µg/mL. `CCOC(=O)c1c(O)cc(C)[nH]c1=O`: the solubility (kinetic) was greater than 29.6 µg/mL. `NC(=O)Nc1ccc(C(=O)OCC(=O)NC2CCCc3ccccc32)cc1` (stereo unspecified) yielded a solubility (kinetic) of 11 µg/mL (≈ 29.9 µM). With `Cc1c(C(=O)OCC(=O)N(C)c2ccccc2)cccc1[N+](=O)[O-]` the figure was 38.1 µg/mL (≈ 116 µM). With `Nc1nc2nc(-c3ccccc3)cc(C(F)(F)F)c2s1` the figure was 4.1 µg/mL (≈ 13.9 µM); with `NS(=O)(=O)c1ccc(NC(=O)COC(=O)c2ccco2)cc1`, 30 µg/mL (≈ 92.5 µM); with `O=C(Cn1cc([N+](=O)[O-])ccc1=O)NCC(=O)Nc1ccc(F)c(F)c1F`, 9.2 µg/mL (≈ 23.9 µM). In turn, `Cc1ccc(N2C(=O)[C@@H]3C(c4cccnc4)=NO[C@@H]3C2=O)c(C)c1` registered a solubility (kinetic) greater than 48.2 µg/mL. Regarding `Cn1c(=O)c(=O)n(C)c2cc([N+](=O)[O-])c(N3CCOCC3)cc21`, the solubility (kinetic) was greater than 48 µg/mL. With `O=C(/C=C/c1ccccc1)Nc1cccnc1Cl` the figure was 38.8 µg/mL (≈ 150 µM); with `CN1C(=O)c2cccc3c(S(=O)(=O)N4CCCC4C(=O)O)ccc1c23` (stereo unspecified), greater than 54.1 µg/mL; with `O=C(COc1ccccc1F)Nc1nc(-c2ccccn2)cs1`, 8.8 µg/mL (≈ 26.7 µM).

`C[N+](C)(C)CC(O)CC(=O)O.[Cl-]` (stereo unspecified): the solubility (kinetic) is greater than 29.6 µg/mL. Then `Cc1ccc(-c2csc(NC(=O)CN3C(=O)CCC3=O)n2)cc1`, with 0.5 µg/mL (≈ 1.52 µM). Turning to `COc1cccc(/C=C/C(=O)NCC2CCCCC2)c1`, the solubility (kinetic) turned out to be 16.4 µg/mL (≈ 60 µM).

The molecule `COc1cccc(CC(=O)Nc2ccc(S(=O)(=O)N3CCCCC3)cc2)c1` displayed a solubility (kinetic) of 10.1 µg/mL (≈ 26 µM). With `Nc1nnc(SCC(=O)c2cccc([N+](=O)[O-])c2)s1` the figure was greater than 44.4 µg/mL; with `COc1ccc(NS(=O)(=O)c2cc(NC(=O)c3cc(F)c(F)cc3Cl)ccc2N2CCOCC2)cc1`, 3.7 µg/mL (≈ 6.88 µM).

`Fc1ccc(CNCCc2ccc3c(c2)OCO3)cc1` yielded a solubility (kinetic) of 31.1 µg/mL (≈ 114 µM). Against the preceding molecule, the solubility kinetic is about 8.4-fold higher.

Take `Fc1cccc(NC(=S)N2CCn3cccc3C2c2cccnc2)c1` (stereo unspecified): the solubility (kinetic) was determined as 51.9 µg/mL (≈ 147 µM). Turning to `CSc1ccccc1C(=O)Nc1cc([N+](=O)[O-])ccc1C`, the kinetic solubility was 2 µg/mL (≈ 6.61 µM). With `O=C(NCC1CC1)Nc1ccccc1` the figure was greater than 28.5 µg/mL. Then `CSc1ncccc1C(=O)OCc1ccccc1Cl`, with less than 0.6 µg/mL. The molecule `O=C(Nc1ccc(F)cc1)C1COc2ccccc2O1` (stereo unspecified) gave a kinetic solubility of 39.8 µg/mL (≈ 146 µM). As to `O=C(Nc1nccs1)c1cc([N+](=O)[O-])ccc1Cl`, the solubility (kinetic) came out at 3.7 µg/mL (≈ 13 µM). With `CN1C(=O)C(=O)/C(=C(/O)c2ccccc2)C1c1ccc(Br)cc1` (stereo unspecified) the figure was greater than 55.8 µg/mL. With `O=C(COC(=O)c1ccc(C(F)(F)F)cc1)Nc1cccc(S(=O)(=O)NC2=NCCCCC2)c1` the figure was 10.5 µg/mL (≈ 21.1 µM). With `CCOc1ncccc1C(=O)N(CCC(C)C)c1c(N)n(Cc2ccccc2)c(=O)[nH]c1=O` the figure was 3.3 µg/mL (≈ 7.31 µM); with `COc1cccc(OC)c1C(=O)Nc1cccc2c1CCCC2`, 41.1 µg/mL (≈ 132 µM).

`CC1Oc2ccccc2N(CC(=O)Nc2ccccc2F)C1=O` (stereo unspecified) yielded a solubility (kinetic) of 1.2 µg/mL (≈ 3.82 µM). `N#CCN1CCN(CC(=O)c2ccc(Br)cc2)CC1` registered a solubility (kinetic) of 47.3 µg/mL (≈ 147 µM). With `COc1ccc(N2C(=O)NC(NC(=O)C(C)(C)C)(C(F)(F)F)C2=O)cc1` (stereo unspecified) the figure was greater than 56 µg/mL; with `CCOc1cc(OCC)cc(C(=O)NCCCN2CCOCC2)c1`, 48.4 µg/mL (≈ 144 µM).

For `Cn1c(C(=O)N2CCC(C(N)=O)CC2)cc2cc(Cl)ccc21`, the solubility (kinetic) stood at 1.2 µg/mL (≈ 3.75 µM).

`NS(=O)(=O)c1cc2c(cc1C(F)(F)F)NCNS2(=O)=O` registered a kinetic solubility greater than 49.7 µg/mL. With `O=c1c2ccccc2nc2oc3ccccc3n12` the figure was 1.1 µg/mL (≈ 4.66 µM); with `N#Cc1c(NCc2ccccc2)ccnc1Cl`, 20.2 µg/mL (≈ 82.9 µM).

A word on the solubility (kinetic): it is solubility judged after dilution from a stock solution rather than from solid.
